These results are taken from article PMC10510716.

This series is described as follows: Paal-Knorr pyrrole formation between a side-chain 1,4-diketone (DOP1, unmasked from 5-methylfuran in TFA/m-cresol 9:1) and a side-chain hydrazide (Nu2) or aminooxy group (Nu5); crude redissolved in mQ water. The following applies: the molecule shown is the open-chain precursor, pH ~2.5, 5.0 mM.

For `CC(=O)CCC(=O)CCC(=O)NCCC[C@H](NC(C)=O)C(=O)N[C@@H](Cc1c[nH]c2ccccc12)C(=O)N[C@@H](CCCNC(=N)N)C(=O)NCC(=O)N[C@@H](CC(=O)O)C(=O)N[C@@H](Cc1ccc(O)cc1)C(=O)N[C@@H](CO)C(=O)N[C@@H](CCCNC(=O)CCC(=O)NN)C(N)=O`, the ring closure, overall yield (40-membered ring) was found to be 4.3%.

For `CC[C@H](C)[C@H](NC(=O)[C@H](CCC(=O)O)NC(=O)[C@H](CCCNC(=N)N)NC(=O)CNC(=O)[C@H](CCCCN)NC(=O)[C@H](CC(C)C)NC(=O)[C@H](Cc1c[nH]cn1)NC(=O)CNC(=O)[C@@H]1CCCN1C(C)=O)C(=O)NCC(=O)N[C@@H](CC(C)C)C(=O)N[C@@H](Cc1c[nH]c2ccccc12)C(=O)N[C@@H](Cc1ccc(O)cc1)C(=O)N[C@@H](C)C(=O)N[C@@H](CCCNC(=O)CON)C(=O)N[C@@H](CCCCN)C(=O)N[C@@H](CCC(N)=O)C(=O)NCC(=O)N[C@@H](CCCNC(=O)CCC(=O)CCC(C)=O)C(=O)N[C@@H](CCCCN)C(=O)N[C@@H](CC(N)=O)C(=O)N[C@@H](CCCCN)C(N)=O`, under “29-membered ring”, the ring closure, overall yield is 3.48%.

Where the note is “38-membered ring”, `CC[C@H](C)[C@H](NC(=O)[C@H](CCCNC(=O)CCC(=O)CCC(C)=O)NC(=O)[C@H](CCCNC(=N)N)NC(=O)CNC(=O)[C@H](CCCCN)NC(=O)[C@H](CC(C)C)NC(=O)[C@H](Cc1c[nH]cn1)NC(=O)CNC(=O)[C@@H]1CCCN1C(C)=O)C(=O)NCC(=O)N[C@@H](CC(C)C)C(=O)N[C@@H](Cc1c[nH]c2ccccc12)C(=O)N[C@@H](Cc1ccc(O)cc1)C(=O)N[C@@H](C)C(=O)N[C@@H](CCCNC(=O)CON)C(=O)N[C@@H](CCCCN)C(=O)N[C@@H](CCC(N)=O)C(=O)NCC(=O)N[C@@H](CCC(N)=O)C(=O)N[C@@H](CCCCN)C(=O)N[C@@H](CC(N)=O)C(=O)N[C@@H](CCCCN)C(N)=O` had a ring closure, overall yield of 13.9%.

Regarding `CC[C@H](C)[C@H](NC(=O)[C@H](CCC(=O)O)NC(=O)[C@H](CCCNC(=N)N)NC(=O)CNC(=O)[C@H](CCCCN)NC(=O)[C@H](CC(C)C)NC(=O)[C@H](Cc1c[nH]cn1)NC(=O)CNC(=O)[C@@H]1CCCN1C(C)=O)C(=O)NCC(=O)N[C@@H](CC(C)C)C(=O)N[C@@H](Cc1c[nH]c2ccccc12)C(=O)N[C@@H](Cc1ccc(O)cc1)C(=O)N[C@@H](C)C(=O)N[C@@H](CCCNC(=O)CCC(=O)NN)C(=O)N[C@@H](CCCCN)C(=O)N[C@@H](CCC(N)=O)C(=O)NCC(=O)N[C@@H](CCCNC(=O)CCC(=O)CCC(C)=O)C(=O)N[C@@H](CCCCN)C(=O)N[C@@H](CC(N)=O)C(=O)N[C@@H](CCCCN)C(N)=O`, the ring closure, overall yield (31-membered ring) is 8.24%.

For `CC[C@H](C)[C@H](NC(=O)[C@H](CCCNC(=O)CCC(=O)CCC(C)=O)NC(=O)[C@H](CCCNC(=N)N)NC(=O)CNC(=O)[C@H](CCCCN)NC(=O)[C@H](CC(C)C)NC(=O)[C@H](Cc1c[nH]cn1)NC(=O)CNC(=O)[C@@H]1CCCN1C(C)=O)C(=O)NCC(=O)N[C@@H](CC(C)C)C(=O)N[C@@H](Cc1c[nH]c2ccccc12)C(=O)N[C@@H](Cc1ccc(O)cc1)C(=O)N[C@@H](C)C(=O)N[C@@H](CCCNC(=O)CCC(=O)NN)C(=O)N[C@@H](CCCCN)C(=O)N[C@@H](CCC(N)=O)C(=O)NCC(=O)N[C@@H](CCC(N)=O)C(=O)N[C@@H](CCCCN)C(=O)N[C@@H](CC(N)=O)C(=O)N[C@@H](CCCCN)C(N)=O`, the ring closure, overall yield (40-membered ring) came out at 12.6%.
